Columns and labels:
MMP-9 [1] = test: PMA-induced MMP-9 activity in cultured macrophages (U937), gelatin zymogram; type: cell-based; details: U937 cells pretreated with substance, then stimulated with 10 nmol/L PMA, FIG. 2 A-C
Experimental: (§1) The human AAA wall was homogenized, the obtained samples were evaluated for GLUT-3 protein expression by Western blot, and MMP-9 activity was determined by zymography. Western blot analysis was conducted by subjecting 10 μg of the extracted protein (quantified) to SDS-polyacrylamide gel electrophoresis for separation, subsequently transferring and immobilizing the resultant onto a membrane to prepare a blot, carrying out a reaction of the blot with an anti-GLUT-3 antibody for 1 hour and then with a secondary antibody, and then detecting signals. Meanwhile, zymogram analysis was conducted by subjecting 5 μg of the extracted protein (quantified) to electrophoresis on a zymogram gel plate to separate the protein. The method employed thereafter was carried out according to the instructions of a kit (Invitrogen). After 24 hours of a reaction at 37° C., zymogram gel was stained overnight with a Coomassie blue solution and then destained, and then enzyme activity was detected.
(§2) In this example, 2-DG, cytochalasin, or phloretin was administered to evaluate the suppression of MMP-9 activity in cultured macrophages or the human AAA wall, using a zymogram used in Example 1.
In the meantime, U937 cells were pretreated with a glucose transporter inhibitor (cytochalasin or phloretin), and then stimulated with 10 nmol/L PMA. In addition, U937 cells were pretreated with 2-DG and then stimulated with 10 nmol/L PMA. Furthermore, 2-DG was administered to the ex vivo culture of human AAA wall.
In panels A to D, “MMP-9 (L)” denotes latent MMP-9 activity and “MMP-9 (A)” denotes active MMP-9 activity. In addition, in panel D, “MMP-2 (L)” denotes latent MMP-2 activity and “MMP-2 (A)” denotes active MMP-2 activity. Moreover, in panel D, “control” denotes an aqueous solvent not containing 2-DG.

MMP-9 [2] = test: MMP-9 activity in ex vivo culture of human AAA wall, zymogram; type: cell-based; details: FIG. 2 D
Experimental: as §1, §2
In the meantime, U937 cells were pretreated with a glucose transporter inhibitor (cytochalasin or phloretin), and then stimulated with 10 nmol/L PMA. […]

[3] = test system: abdominal aorta aneurysm formation; test: Calcium chloride application-induced mouse aneurysm model; type: in vivo
Experimental: The mouse aneurysm model was induced by peri-aortic application of calcium chloride to 8-week-old male C57BL/6J mice.
2-DG was intraperitoneally administered at 100 mg/kg body weight or 1 g/kg body weight/day to the mouse aneurysm model for 28 days. After 28 days, the abdominal aorta was removed and then the diameter thereof was measured. An abdominal aorta was removed similarly from mice to which saline had been administered instead of 2-DG after application of calcium chloride as a negative control, and a mouse that had been treated in the same manner except for application of sodium chloride instead of calcium chloride as a control, and then the diameter of each thereof was measured.
Panel B is a graph showing the diameter (mm) of the abdominal aorta removed from each group.

[4] = test system: abdominal aorta aneurysm formation; test: Angiotensin II-induced apolipoprotein E knockout mouse aneurysm model; type: in vivo; details: angiotensin II-induced apolipoprotein E knockout mice; 1 g/kg body weight/day intraperitoneally for 28 days; FIG. 4
Experimental: Each angiotensin II-induced apolipoprotein E knockout mouse was produced by subcutaneous administration of a pressor peptide, angiotensin II (1000 ng/kg/min), to a 12-week-old apolipoprotein E-deficient mouse via osmotic pump for 28 days. After osmotic pump implantation, 2-DG was intraperitoneally administered at 1 g/kg body weight/day for 28 days (the number of mice (n)=14). After 28 days of administration, the abdominal aorta was removed and then the aortic diameter was measured. As negative control, the abdominal aorta was similarly removed from mice (the number of mice (n)=14) produced by administration of saline instead of 2-DG, and then the aortic diameter was measured.

[5] = test system: MMP-1, CCL-2, TNF-α, MMP-9, CCL-8 and IL-6 gene expression; test: Expression of atherosclerosis/aneurysm-related genes in cultured macrophages by DNA microarray; type: cell-based; details: U937 cells pretreated, then 10 nmol/L PMA, 24 hours after stimulation, FIG. 5
Experimental: In this example, the effects of 2-DG on gene expressions associated with development of atherosclerosis and/or aneurysm in cultured macrophages were evaluated by DNA microarray (Agilent). The evaluated genes associated with atherosclerosis induction- and/or aneurysm formation were MMP-1 and MMP-9, chemokines (CCL-2 and CCL-8) and inflammatory cytokines (TNF-α and IL-6) (Libby P., Inflammation in atherosclerosis, Nature 2002, 420 (6917): 868-874 and Tung W S, Lee J K, Thompson R W., Simultaneous analysis of 1176 gene products in normal human aorta and abdominal aortic aneurysms using a membrane-based complementary DNA expression array. J Vasc Surg. 2001, 34(1): 143-150). Monocytic cells (U937) were stimulated with 10 nmol/L phorbol ester (PMA) for differentiation to macrophages. Some U937 cells were pretreated with 2-DG and then stimulated with 10 nmol/L PMA. As control cells, monocytic cells (U937) to which neither phorbol ester nor 2-DG had been administered were used. At 24 hours after stimulation, cells were collected, RNA was extracted, cDNA was constructed from RNA, and then the resultant was arrayed. The results of arraying were analyzed by GeneSpring GX10 software, so that the expression levels of the atherosclerosis induction- and/or aneurysm-related genes of each cell sample were evaluated. […]

SIRT1 gene = SIRT1 gene expression in cultured macrophages; type: cell-based; details: U937 cells pretreated with 2 mg/mL, then PMA; 24 hours after stimulation; FIG. 6 C
Experimental: In this example, the effect of 2-DG was evaluated on the expression of SIRT1 gene in cultured macrophages. […] Gene expression was evaluated at the mRNA level in a manner similar to that used in Example 4.
In the meantime, 2-DG (2 mg/mL) was pretreated to the U937 cell culture solution, and stimulated them with PMA. As control cells, monocytic cells (U937) to which neither phorbol ester nor 2-DG had been administered and monocytic cells (U937) to which only phorbol ester had been administered were used. At 24 hours after stimulation, SIRT1 gene expression levels were compared, and the results are shown in panel C of FIG. 6.

| Compound | PMA-induced MMP-9 activity (MMP-9 [1]) | MMP-9 activity in ex vivo culture of the human AAA wall (MMP-9 [2]) | expansion of aortic diameter following application of calcium chloride ([3]; C57BL/6J mice, 100 mg/kg or 1 g/kg body weight/day intraperitoneally for 28 days, FIG. 3) | vascular wall structure (tunica media layers, cytoprotective effect) ([3]; calcium chloride mouse aneurysm model, mice treated with 2-DG) | aneurysm formation (aortic diameter) [4] | expression levels of atherosclerosis induction- and/or aneurysm-related genes (MMP-1, CCL-2, TNF-α, MMP-9, CCL-8, IL-6), mRNA [5] | SIRT1 gene expression level (SIRT1 gene) |
| --- | --- | --- | --- | --- | --- | --- | --- |
| O=CC[C@@H](O)[C@H](O)[C@H](O)CO [2-DG, 2-deoxyglucose] | decreased | suppressed | suppressed | maintained the vascular wall structure | suppressed | decreased | significantly increased |
| O=C(CCc1ccc(O)cc1)c1c(O)cc(O)cc1O [phloretin] | decreased | – | – | – | – | – | – |
| cytochalasin | decreased | – | – | – | – | – | – |
